Patent US11358965B2, “EGFR dimer disruptors and use of the same” (THE REGENTS OF THE UNIVERSITY OF MICHIGAN, priority 2018, dated 2022)

What was measured:
UM1 cells = assay: Clonogenic IC50, UM1; assay type: cell-based
SK-MEL-5 = assay: NCI 60 cell line screen, SK-MEL-5; assay type: cell-based, human; conditions: Melanoma
Description: (§1) The activity of Compound 8C was tested against 60 different human tumor cell lines at the National Cancer Institute, using the standard NCI 60 screening protocol.

HCT-116 = assay: NCI 60 cell line screen, HCT-116; assay type: cell-based, human; conditions: Colon Cancer
Description: as §1

M14 = assay: NCI 60 cell line screen, M14; assay type: cell-based, human; conditions: Melanoma
Description: as §1

786-0 = assay: NCI 60 cell line screen, 786-0; assay type: cell-based, human; conditions: Renal Cancer
Description: as §1

UACC-62 = assay: NCI 60 cell line screen, UACC-62; assay type: cell-based, human; conditions: Melanoma
Description: as §1

LOX IMVI = assay: NCI 60 cell line screen, LOX IMVI; assay type: cell-based, human; conditions: Melanoma
Description: as §1

MALME-3M = assay: NCI 60 cell line screen, MALME-3M; assay type: cell-based, human; conditions: Melanoma
Description: as §1

SK-MEL-28 = assay: NCI 60 cell line screen, SK-MEL-28; assay type: cell-based, human; conditions: Melanoma
Description: as §1

HT29 = assay: NCI 60 cell line screen, HT29; assay type: cell-based, human; conditions: Colon Cancer
Description: as §1

K-562 = assay: NCI 60 cell line screen, K-562; assay type: cell-based, human; conditions: Leukemia
Description: as §1

UACC-257 = assay: NCI 60 cell line screen, UACC-257; assay type: cell-based, human; conditions: Melanoma
Description: as §1

HCC-2998 = assay: NCI 60 cell line screen, HCC-2998; assay type: cell-based, human; conditions: Colon Cancer
Description: as §1

MDA-MB-468 = assay: NCI 60 cell line screen, MDA-MB-468; assay type: cell-based, human; conditions: Breast Cancer
Description: as §1

HL-60(TB) = assay: NCI 60 cell line screen, HL-60(TB); assay type: cell-based, human; conditions: Leukemia
Description: as §1

MDA-MB-231/ATCC = assay: NCI 60 cell line screen, MDA-MB-231/ATCC; assay type: cell-based, human; conditions: Breast Cancer
Description: as §1

Microsomal half-life = assay type: in vitro ADME; conditions: microsomes
[1] = Stability in mouse liver microsomes; assay type: in vitro ADME
[2] = Stability in human liver microsomes; assay type: in vitro ADME
cells = assay: Clonogenic cellular assay; assay type: cell-based
PC9-AZR = assay: Clonogenic survival assay, PC9-AZR; assay type: cell-based; conditions: read-out: IC50 and IC90
purified EGFR = biological target: T1, purified EGFR (Homo sapiens, UniProt P00533); assay: Competition with Biotin-Disruptin for purified EGFR; assay type: binding; conditions: 15 minutes at 37° C.
T1 construct: WT-EGFR kinase domain (aa696-1022, active kinase); made in house; host or cells: SF9 insect cells
T1 sequence (P00533 696-1022): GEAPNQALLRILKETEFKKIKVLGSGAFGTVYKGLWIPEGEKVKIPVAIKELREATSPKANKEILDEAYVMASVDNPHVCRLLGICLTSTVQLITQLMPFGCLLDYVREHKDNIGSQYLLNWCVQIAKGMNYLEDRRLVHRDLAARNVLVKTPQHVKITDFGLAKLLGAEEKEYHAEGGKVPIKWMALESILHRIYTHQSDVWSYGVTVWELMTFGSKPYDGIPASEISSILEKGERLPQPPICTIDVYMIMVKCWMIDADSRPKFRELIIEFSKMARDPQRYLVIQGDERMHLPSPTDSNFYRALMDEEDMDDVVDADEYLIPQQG
Description: To determine if Compound 8C competes for the same binding site on EGFR, Biotin-Disruptin-Avidin coupled beads were incubated with purified EGFR in the presence or absence of Compound 8C for 15 minutes at 37° C. The agarose beads were spun down, and the non-specific protein removed by washing in citrate buffer. The bound protein was released in Laemmli buffer and resolved by SDS page.

[3] = biological target: T2, purified wild-type EGFR kinase domain (Homo sapiens, UniProt P00533); assay: Thermal stability assay of purified EGFR; assay type: binding; conditions: 10 μM
T2 construct: WT-EGFR kinase domain (aa696-1022, active kinase); made in house; host or cells: SF9 insect cells
T2 sequence (P00533 696-1022): as above
Description: The samples were subjected to heat inactivation (20 to 44° C.) for 3 minutes. The soluble fraction was separated from aggregate by centrifugation at 13,000 RPM at 4° C. for 10 minutes. […] The EGFR band intensity as quantified by ImageJ software and plotted (see FIG. 5B). […] The soluble fraction of EGFR was quantified and plotted as described above (see FIG. 5C).
After cooling, the samples were centrifuged, and the soluble protein fraction was collected and resolved using immunoblotting with anti-EGFR antibodies (see FIG. 6A).

EGFR = assay: EGF-induced EGFR dimerization and EGFR degradation in PC9-AZR cells; assay type: cell-based; conditions: 1 μM, 1 hour, then EGF 30 ng/ml
Description: It was determined if the response to Compound 8C correlates with inhibition of EGF-induced dimerization and degradation of EGFR. For this, PC9-AZR cells were treated for 1 hour with 1 μM Compound 8C and an additional 30 minutes with EGF (30 ng/ml) and 30 minutes with disuccinimidyl suberate (DSS, 150 μM) to cross-link interacting proteins. Lysates were prepared and immunoblotted with anti-EGFR antibodies.

UMSCC74B [4] = assay: UMSCC74B head and neck tumor model, daily for one week; assay type: in vivo
Description: Efficacy testing of Compound 8C in UMSCC74B, an EGFR driven, aggressive tumor model of the head and neck. Tumor bearing mice were treated with 30 mg/kg dose daily (Monday-Friday) for one week. This dose was selected based on single dose PK profile (see FIG. 8A). This treatment was safe and produced significant tumor growth delay (see FIG. 10).
Nude mice bearing either UMSCC74B ([…]) were treated with (30 mg/kg, daily for one week) or with vehicle (5% DMSO in PBS). Each group had at least 5 mice. Tumor volume and body weight was recorded 3-4 times a week, and change in the average tumor volume with time is plotted. The average loss in body weight during treatment was less than 10%. Error bar represents standard error of the mean.
For the Compound 8C treatment group, day 0 is defined as the first day of treatment. In vehicle control mice, day 0 was defined as the day when the tumor volume was closest to the mean tumor volume in Compound 8C treatment groups on the day of treatment initiation. To assess whether tumor volume growth rates differed by treatment, mixed effect models were fit with random intercept terms at the mouse levels to account for correlated outcomes over time within a tumor and between 2 tumors within a mouse. Monotherapy elicited a significant reduction in tumor growth rate after one week of dosing (see FIG. 10).

[5] = tested on: Ba/F3-AZR cells (L858R+T790M+C797S-EGFR); assay: Osimertinib resistant Ba/F3-AZR ascites tumor model; assay type: in vivo, nude mice; conditions: single 30 mg/kg dose (Compound 8C i.p., osimertinib oral), 18 days after tumor cells
Preliminary safety test = assay type: in vivo, C57BL6 mice; conditions: daily dose of 30 mg/kg for one week
Description: A preliminary test on the safety of a daily dose of 30 mg/kg for one week was performed using C57BL6 mice. The overall health and weight of a group of 6 mice was monitored during treatment. A modest loss of 3.5±2.4% body weight after one week of treatment was observed, but mice fully recovered the weight 2-days after treatment cessation.

[6] = tested on: PanIn (Pancreatic Intraepithelial Neoplasia); assay: Pancreatic tumor model (KC mice), PanIn; assay type: in vivo; conditions: oral gavage, 30 mg/kg body weight, daily
Description: 6-week old KC mice were treated with Compound 8C via oral gavage (30 mg/kg body weight, daily).

UMSCC74B [7] = assay: UMSCC74B xenografts, oral gavage twice weekly; assay type: in vivo, mouse; conditions: 30 mg/kg, vs untreated and cetuximab controls
Description: Mouse xenographs of UMSCC74B, a head and neck tumor cell line, were treated with Compound 8C via oral gavage (30 mg/kg body weight, twice weekly).

## CN1CCC2(CC1)N=C(SCC(=O)Nc1cnc3ccccc3c1)C(c1ccc(Br)cc1)=N2 [Compound 8C, 2-((3-(4-bromophenyl)-8-methyl-1,4,8-triazaspiro[4.5]deca-1,3-dien-2-yl)thio)-N-(quinolin-3-yl)acetamide]
UM1 cells
  IC50: 0.5 µM
SK-MEL-5
  Percent Growth: −96.2%
HCT-116
  Percent Growth: −90.7%
M14
  Percent Growth: −83.8%
786-0
  Percent Growth: −81.7%
UACC-62
  Percent Growth: −78.9%
LOX IMVI
  Percent Growth: −78.5%
MALME-3M
  Percent Growth: −75.5%
SK-MEL-28
  Percent Growth: −70.1%
HT29
  Percent Growth: −67.1%
K-562
  Percent Growth: −61.5%
UACC-257
  Percent Growth: −61.2%
HCC-2998
  Percent Growth: −51.3%
MDA-MB-468
  Percent Growth: −43.8%
HL-60(TB)
  Percent Growth: −40.7%
MDA-MB-231/ATCC
  Percent Growth: −40.5%
Microsomal half-life
  half-life: > 46 min
[1]
  stability compared to pre lead (C95): approximately 20 times
[2]
  stability compared to pre lead (C95): approximately 20 times
cells
  IC50 in the clonogenic cellular assay: sub-micromolar
PC9-AZR
  IC50: 1500 to 4000 nM
Purified EGFR
  inhibition of Disruptin-EGFR binding: Competitive inhibition
[3]
  effect on melting curve / melting temperature of purified WT-EGFR: shifts the melting curve
EGFR
  EGFR dimerization and degradation of EGFR: can inhibit EGFR dimerization and induce degradation of EGFR
UMSCC74B [4]; 30 mg/kg dose daily (Monday-Friday) for one week
  safety of treatment: safe
UMSCC74B [4]; 30 mg/kg, daily for one week
  average loss in body weight during treatment: less than 10%
UMSCC74B [4]; 30 mg/kg, daily for one week, vs time-matched control (p=0.013) and overall control (p<0.001)
  tumor growth rates: significantly lower
[5]
  survival: prolonged life
Preliminary safety test
  loss of body weight after one week of treatment: 3.5±2.4%
  time to full weight recovery after treatment cessation: 2 days
[6]
  propensity for developing PanIn: significantly reduced propensity
UMSCC74B [7]
  tumor volume: significantly reduced tumor volume
